Assay results taken from patent US20120077802A1 (SUNOVION PHARMACEUTICALS INC., priority 2009, published 2012).

Key:
[1] = biological target: T1, human histamine H3 receptor (Homo sapiens, UniProt Q9Y5N1); assay: H3 GTPγS assay (SPA method), histamine H3 in vitro assay; assay type: biochemical; conditions: GTPγ[35S] SPA, membranes of cells expressing human H3 receptor; in one embodiment HCl salts tested; read-out: Potency (functional potency as indicated by IC50)
T1 construct: host or cells: cells expressing the human H3 receptor

[2] = In vivo rat PK, brain exposures; conditions: adult male rats, oral gavage in water, 3 mg/kg; for concentration at 1 hr: 1 hr after dosing, read-out: Compound Concentration (ng/g rat brain) 1 hr; for concentration at 24 hr: 24 hr after dosing, read-out: Compound Concentration (ng/g rat brain) 24 hr
Protocol: In vivo rat PK studies were performed using certain compounds provided herein. In one embodiment, a compound was dissolved in water and was administered to adult male rats (n=3 per time point) by oral gavage at a dose of 3 to 10 mg/kg. The plasma samples were collected and brain tissues were harvested at various time points after dosing, e.g., 15 min, 30 min, 1 hr, 2 hr, and 24 hr after dosing. The PK samples were analyzed; and the compound concentrations in these samples were quantified by LC/MS. The pKa values of the R^6 moiety of the compounds were calculated using ACD Lab (Version 12.01).

T1 sequence (Q9Y5N1 whole entry): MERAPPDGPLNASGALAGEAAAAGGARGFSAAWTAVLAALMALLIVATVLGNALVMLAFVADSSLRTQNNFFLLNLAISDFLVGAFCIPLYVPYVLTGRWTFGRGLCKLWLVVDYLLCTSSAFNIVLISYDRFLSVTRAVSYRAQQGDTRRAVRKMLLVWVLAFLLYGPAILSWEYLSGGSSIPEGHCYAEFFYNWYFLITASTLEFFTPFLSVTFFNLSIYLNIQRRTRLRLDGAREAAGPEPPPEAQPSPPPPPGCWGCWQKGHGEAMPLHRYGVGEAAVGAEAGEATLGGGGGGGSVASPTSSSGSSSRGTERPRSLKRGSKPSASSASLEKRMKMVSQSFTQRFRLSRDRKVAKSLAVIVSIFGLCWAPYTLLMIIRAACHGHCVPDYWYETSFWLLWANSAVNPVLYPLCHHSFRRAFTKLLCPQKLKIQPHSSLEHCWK

IC50 [1] [nM]	concentration at 1 hr [2] [ng/g]	concentration at 24 hr [2] [ng/g]	Structure (SMILES)
≤ 10	900	140	c1cc2c(cc1CN1CCOCC1)CC1(CCN(C3CCC3)CC1)O2 [Compound 40, 1′-Cyclobutyl-5-(morpholinomethyl)-3H-spiro[benzofuran-2,4′-piperidine]]
≤ 10	< 25	450	c1cc2c(cc1CN1CCCC1)CC1(CCN(C3CCC3)CC1)O2 [Compound 41, 1′-Cyclobutyl-5-(pyrrolidin-1-ylmethyl)-3H-spiro[benzofuran-2,4′-piperidine]]
